Key:
Test in all cases: Test C postemergence
Assay type in all cases: in vivo
[1] = test system: barnyardgrass (Echinochloa crus-galli); conditions: Echinochloa crus-galli, post-emergence, Postemergence, scale 0 to 100, read-out: Plant response rating, Barnyardgrass
Outline: (§1)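 Greenhouse test, preemergence on seeded soil or postemergence on 1- to 4-leaf plants. Response is a visual 0-100 rating versus controls, taken 13-15 days after treatment.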

[2] = test system: velvetleaf (Abutilon theophrasti); conditions: Abutilon theophrasti, post-emergence, Postemergence, scale 0 to 100, read-out: Plant response rating, Velvetleaf
Outline: as §1

[3] = test system: yellow nutsedge (Cyperus esculentus); conditions: Cyperus, post-emergence, 336 h, Postemergence, scale 0 to 100, read-out: Plant response rating, Nutsedge, Yellow
Outline: as §1

[4] = test system: galium (catchweed bedstraw, Galium aparine); conditions: Galium, post-emergence, 336 h, Postemergence, scale 0 to 100, read-out: Plant response rating, Galium
Outline: as §1

[5] = test system: ragweed (common ragweed, Ambrosia elatior); conditions: Ambrosia artemisiifolia, post-emergence, 336 h, Postemergence, scale 0 to 100, read-out: Plant response rating, Ragweed
Outline: as §1

[6] = test system: waterhemp (common waterhemp, Amaranthus rudis); conditions: Amaranthus tuberculatus, post-emergence, Postemergence, scale 0 to 100, read-out: Plant response rating, Waterhemp
Outline: as §1

[7] = test system: giant foxtail (Setaria faberii); conditions: Setaria faberi, post-emergence, 336 h, Postemergence, scale 0 to 100, read-out: Plant response rating, Foxtail, Giant
Outline: as §1

[8] = test system: oilseed rape (Brassica napus); conditions: Brassica napus, post-emergence, Postemergence, scale 0 to 100, read-out: Plant response rating, Oilseed Rape
Outline: as §1

[9] = test system: chickweed (common chickweed, Stellaria media); conditions: Stellaria media, post-emergence, Postemergence, scale 0 to 100, read-out: Plant response rating, Chickweed
Outline: as §1

corn (Zea mays) = conditions: Zea mays, post-emergence, 336 h, Postemergence, scale 0 to 100
Outline: as §1

wild oat (Avena fatua) = conditions: Avena fatua, post-emergence, Postemergence, scale 0 to 100, read-out: Plant response rating, Oat, Wild
Outline: as §1

[10] = test system: johnsongrass (Sorghum halepense); conditions: Sorghum halepense, post-emergence, 336 h, Postemergence, scale 0 to 100, read-out: Plant response rating, Johnsongrass
Outline: as §1

[11] = test system: morningglory (Ipomoea coccinea); conditions: Ipomoea, post-emergence, 336 h, Postemergence, scale 0 to 100, read-out: Plant response rating, Morningglory
Outline: as §1

[12] = test system: winter wheat (Triticum aestivum); conditions: Triticum aestivum, post-emergence, 336 h, Postemergence, scale 0 to 100, read-out: Plant response rating, Wheat
Outline: as §1

soybean (Glycine max) = conditions: Glycine max, post-emergence, Postemergence, scale 0 to 100, read-out: Plant response rating, Soybean
Outline: as §1

[13] = test system: lambsquarters (Chenopodium album); conditions: Chenopodium album, post-emergence, 336 h, Postemergence, scale 0 to 100, read-out: Plant response rating, Lambsquarters
Outline: as §1

[14] = test system: large (Lg) crabgrass (Digitaria sanguinalis); conditions: Digitaria sanguinalis, post-emergence, 336 h, Postemergence, scale 0 to 100, read-out: Plant response rating, Crabgrass, Large
Outline: as §1

[15] = test system: Italian ryegrass (Lolium multiflorum); conditions: Lolium multiflorum, post-emergence, 336 h, Postemergence, scale 0 to 100, read-out: Plant response rating, Ryegrass, Italian
Outline: as §1

[16] = test system: blackgrass (Alopecurus myosuroides); conditions: Alopecurus myosuroides, post-emergence, 336 h, Postemergence, scale 0 to 100, read-out: Plant response rating, Blackgrass
Outline: as §1

## N#Cc1cccc(Oc2ncc(Cl)cn2)c1Oc1ccc(Cl)cn1 [Compound 16, 2-[(5-chloro-2-pyridinyl)oxy]-3-[(5-chloro-2-pyrimidinyl)oxy]benzonitrile]
[1]; 16 g ai/ha
  pest or weed control at 16 g/ha: 10%
[1]; 31 g ai/ha
  pest or weed control at 31 g/ha: 15%
[1]; 62 g ai/ha
  pest or weed control at 62 g/ha: 15%
[1]; 125 g ai/ha
  pest or weed control at 125 g/ha: 20%
[2]; 31 g ai/ha
  pest or weed control at 31 g/ha: 65%
[2]; 62 g ai/ha
  pest or weed control at 62 g/ha: 60%
[2]; 125 g ai/ha
  pest or weed control at 125 g/ha: 70%
[3]; 31 g ai/ha
  pest or weed control at 31 g/ha: 10%
[3]; 62 g ai/ha
  pest or weed control at 62 g/ha: 10%
[3]; 125 g ai/ha
  pest or weed control at 125 g/ha: 15%
[4]; 16 g ai/ha
  pest or weed control at 16 g/ha: 60%
[4]; 31 g ai/ha
  pest or weed control at 31 g/ha: 70%
[4]; 62 g ai/ha
  pest or weed control at 62 g/ha: 70%
[4]; 125 g ai/ha
  pest or weed control at 125 g/ha: 95%
[5]; 31 g ai/ha
  pest or weed control at 31 g/ha: 60%
[5]; 62 g ai/ha
  pest or weed control at 62 g/ha: 50%
[5]; 125 g ai/ha
  pest or weed control at 125 g/ha: 70%
[6]; 31 g ai/ha
  pest or weed control at 31 g/ha: 90%
[6]; 62 g ai/ha
  pest or weed control at 62 g/ha: 95%
[6]; 125 g ai/ha
  pest or weed control at 125 g/ha: 90%
[7]; 16 g ai/ha
  pest or weed control at 16 g/ha: 10%
[7]; 31 g ai/ha
  pest or weed control at 31 g/ha: 15%
[7]; 62 g ai/ha
  pest or weed control at 62 g/ha: 20%
[7]; 125 g ai/ha
  pest or weed control at 125 g/ha: 35%
[8]; 31 g ai/ha
  plant injury at 31 g/ha: 70%
[8]; 62 g ai/ha
  plant injury at 62 g/ha: 80%
[8]; 125 g ai/ha
  plant injury at 125 g/ha: 50%
[9]; 16 g ai/ha
  pest or weed control at 16 g/ha: 25%
[9]; 31 g ai/ha
  pest or weed control at 31 g/ha: 60%
[9]; 62 g ai/ha
  pest or weed control at 62 g/ha: 80%
[9]; 125 g ai/ha
  pest or weed control at 125 g/ha: 80%
Corn (Zea mays); 16 g ai/ha
  Corn plant response rating (crop injury, 0 = no effect, 100 = complete kill) at 16 g/ha: 10%
Corn (Zea mays); 31 g ai/ha
  Corn plant response rating (crop injury, 0 = no effect, 100 = complete kill) at 31 g/ha: 20%
Corn (Zea mays); 62 g ai/ha
  Corn plant response rating (crop injury, 0 = no effect, 100 = complete kill) at 62 g/ha: 10%
Corn (Zea mays); 125 g ai/ha
  Corn plant response rating (crop injury, 0 = no effect, 100 = complete kill) at 125 g/ha: 15%
Wild oat (Avena fatua); 31 g ai/ha
  pest or weed control at 31 g/ha: 10%
Wild oat (Avena fatua); 62 g ai/ha
  pest or weed control at 62 g/ha: 5%
Wild oat (Avena fatua); 125 g ai/ha
  pest or weed control at 125 g/ha: 5%
[10]; 16 g ai/ha
  pest or weed control at 16 g/ha: 5%
[10]; 31 g ai/ha
  pest or weed control at 31 g/ha: 5%
[10]; 62 g ai/ha
  pest or weed control at 62 g/ha: 10%
[10]; 125 g ai/ha
  pest or weed control at 125 g/ha: 10%
[11]; 31 g ai/ha
  pest or weed control at 31 g/ha: 90%
[11]; 62 g ai/ha
  pest or weed control at 62 g/ha: 90%
[11]; 125 g ai/ha
  pest or weed control at 125 g/ha: 95%
[12]; 31 g ai/ha
  plant injury at 31 g/ha: 0%
[12]; 62 g ai/ha
  plant injury at 62 g/ha: 5%
[12]; 125 g ai/ha
  plant injury at 125 g/ha: 0%
Soybean (Glycine max); 31 g ai/ha
  plant injury at 31 g/ha: 70%
Soybean (Glycine max); 62 g ai/ha
  plant injury at 62 g/ha: 45%
Soybean (Glycine max); 125 g ai/ha
  plant injury at 125 g/ha: 55%
[13]; 16 g ai/ha
  pest or weed control at 16 g/ha: 65%
[13]; 31 g ai/ha
  pest or weed control at 31 g/ha: 80%
[13]; 62 g ai/ha
  pest or weed control at 62 g/ha: 75%
[13]; 125 g ai/ha
  pest or weed control at 125 g/ha: 90%
[14]; 16 g ai/ha
  pest or weed control at 16 g/ha: 10%
[14]; 31 g ai/ha
  pest or weed control at 31 g/ha: 15%
[14]; 62 g ai/ha
  pest or weed control at 62 g/ha: 15%
[14]; 125 g ai/ha
  pest or weed control at 125 g/ha: 20%
[15]; 31 g ai/ha
  pest or weed control at 31 g/ha: 10%
[15]; 62 g ai/ha
  pest or weed control at 62 g/ha: 5%
[15]; 125 g ai/ha
  pest or weed control at 125 g/ha: 15%
[16]; 16 g ai/ha
  pest or weed control at 16 g/ha: 5%
[16]; 31 g ai/ha
  pest or weed control at 31 g/ha: 5%
[16]; 62 g ai/ha
  pest or weed control at 62 g/ha: 5%
[16]; 125 g ai/ha
  pest or weed control at 125 g/ha: 10%
